According to ChEMBL document CHEMBL3885861, “Open TG-GATES”:

Species: Rattus norvegicus
Assay: Open TG-GATES - Regimen: Single
Type: toxicity, organism-based, Sprague-Dawley
Parameters: regimen Single, gender Male, age 6 weeks
Settings: in vivo, po, 1000 mg/kg, route gavage, dose level High; for APTT / Bas / Eos / Fbg / Hb / Ht / Lym / MCH / MCHC / MCV / Mono / Neu / PT / Plat / RBC / Ret / WBC: tissue Blood; for KIDNEY_L / KIDNEY_R / KIDNEY_TOTAL: tissue Kidney; for LIVER: tissue Liver; for A/G / ALP / ALT / AST / BUN / CRE / Ca / Cl / DBIL / GLC / IP / K / LDH / Na / PL / RALB / TBIL / TC / TG / TP / gamma-GTP: tissue Plasma

CN(C)[C@@H]1C(O)=C(C(N)=O)C(=O)[C@@]2(O)C(O)=C3C(=O)c4c(O)cccc4[C@@](C)(O)[C@H]3C[C@@H]12 [TETRACYCLINE]
TERMINAL_BW (3 h): 185.9 g
APTT (3 h): 15.7 s
Bas (3 h): 0%
Eos (3 h): 0.4%
Fbg (3 h): 217.2 mg/dL
Hb (3 h): 13.5 g/dL
Ht (3 h): 40.5%
Lym (3 h): 79.8%
MCH (3 h): 22.1 pg
MCHC (3 h): 33.3%
MCV (3 h): 66.4 fL
Mono (3 h): 6.4%
Neu (3 h): 13.2%
PT (3 h): 11.9 s
Plat (3 h): 103.4 x10_4/uL
RBC (3 h): 610 x10_4/ul
Ret (3 h): 9.5%
WBC (3 h): 108.1 x10_2/uL
KIDNEY_L (3 h): 0.8 g
KIDNEY_R (3 h): 0.8 g
KIDNEY_TOTAL (3 h): 1.7 g
LIVER (3 h): 8.5 g
A/G (3 h): 2.2
ALP (3 h): 770.2 IU/L
ALT (3 h): 44 IU/L
AST (3 h): 72.8 IU/L
BUN (3 h): 15.6 mg/dL
CRE (3 h): 0.5 mg/dL
Ca (3 h): 11.1 mg/dL
Cl (3 h): 105.8 meq/L
DBIL (3 h): 0.03 mg/dL
GLC (3 h): 184.8 mg/dL
IP (3 h): 12 mg/dL
K (3 h): 5 meq/L
LDH (3 h): 142.4 IU/L
Na (3 h): 138 meq/L
PL (3 h): 132 mg/dL
RALB (3 h): 3.8 g/dL
TBIL (3 h): 0.6 mg/dL
TC (3 h): 77.8 mg/dL
TG (3 h): 36.8 mg/dL
TP (3 h): 5.6 g/dL
gamma-GTP (3 h): 1.8 IU/L
TERMINAL_BW (6 h): 184.3 g
APTT (6 h): 17.2 s
Bas (6 h): 0%
Eos (6 h): 0.4%
Fbg (6 h): 193 mg/dL
Hb (6 h): 13.4 g/dL
Ht (6 h): 40.4%
Lym (6 h): 79%
MCH (6 h): 21.9 pg
MCHC (6 h): 33.1%
MCV (6 h): 66.1 fL
Mono (6 h): 7.2%
Neu (6 h): 13.4%
PT (6 h): 12.2 s
Plat (6 h): 101.1 x10_4/uL
RBC (6 h): 612.4 x10_4/ul
Ret (6 h): 10.1%
WBC (6 h): 100.4 x10_2/uL
KIDNEY_L (6 h): 0.9 g
KIDNEY_R (6 h): 0.9 g
KIDNEY_TOTAL (6 h): 1.8 g
LIVER (6 h): 8.1 g
A/G (6 h): 1.8
ALP (6 h): 872.8 IU/L
ALT (6 h): 39 IU/L
AST (6 h): 74.2 IU/L
BUN (6 h): 13.4 mg/dL
CRE (6 h): 0.4 mg/dL
Ca (6 h): 10.9 mg/dL
Cl (6 h): 106.4 meq/L
DBIL (6 h): 0.018 mg/dL
GLC (6 h): 186.6 mg/dL
IP (6 h): 11.9 mg/dL
K (6 h): 5.4 meq/L
LDH (6 h): 128.4 IU/L
Na (6 h): 137.4 meq/L
PL (6 h): 127 mg/dL
RALB (6 h): 3.4 g/dL
TBIL (6 h): 0.4 mg/dL
TC (6 h): 71.2 mg/dL
TG (6 h): 36.2 mg/dL
TP (6 h): 5.2 g/dL
gamma-GTP (6 h): 1.6 IU/L
TERMINAL_BW (9 h): 180.6 g
APTT (9 h): 16.8 s
Bas (9 h): 0%
Eos (9 h): 0.2%
Fbg (9 h): 199.2 mg/dL
Hb (9 h): 13.1 g/dL
Ht (9 h): 40%
Lym (9 h): 83.4%
MCH (9 h): 21.5 pg
MCHC (9 h): 32.8%
MCV (9 h): 65.4 fL
Mono (9 h): 5.8%
Neu (9 h): 11%
PT (9 h): 12.3 s
Plat (9 h): 104 x10_4/uL
RBC (9 h): 610.6 x10_4/ul
Ret (9 h): 8.9%
WBC (9 h): 66.5 x10_2/uL
KIDNEY_L (9 h): 0.8 g
KIDNEY_R (9 h): 0.8 g
KIDNEY_TOTAL (9 h): 1.6 g
LIVER (9 h): 7.7 g
A/G (9 h): 2.2
ALP (9 h): 769.6 IU/L
ALT (9 h): 33.8 IU/L
AST (9 h): 66.4 IU/L
BUN (9 h): 12.8 mg/dL
CRE (9 h): 0.4 mg/dL
Ca (9 h): 11 mg/dL
Cl (9 h): 107.4 meq/L
DBIL (9 h): 0.044 mg/dL
GLC (9 h): 192.4 mg/dL
IP (9 h): 11.5 mg/dL
K (9 h): 4.9 meq/L
LDH (9 h): 136.2 IU/L
Na (9 h): 139.8 meq/L
PL (9 h): 128.8 mg/dL
RALB (9 h): 3.7 g/dL
TBIL (9 h): 0.4 mg/dL
TC (9 h): 69.4 mg/dL
TG (9 h): 25.6 mg/dL
TP (9 h): 5.4 g/dL
gamma-GTP (9 h): 1.2 IU/L
TERMINAL_BW (24 h): 200.2 g
APTT (24 h): 16.8 s
Bas (24 h): 0%
Eos (24 h): 0.6%
Fbg (24 h): 208.8 mg/dL
Hb (24 h): 13.4 g/dL
Ht (24 h): 40.5%
Lym (24 h): 84.2%
MCH (24 h): 21.5 pg
MCHC (24 h): 33%
MCV (24 h): 65.1 fL
Mono (24 h): 7%
Neu (24 h): 8.2%
PT (24 h): 11.9 s
Plat (24 h): 105 x10_4/uL
RBC (24 h): 621.8 x10_4/ul
Ret (24 h): 8.9%
WBC (24 h): 88.7 x10_2/uL
KIDNEY_L (24 h): 0.9 g
KIDNEY_R (24 h): 0.9 g
KIDNEY_TOTAL (24 h): 1.9 g
LIVER (24 h): 8.9 g
A/G (24 h): 2.2
ALP (24 h): 948 IU/L
ALT (24 h): 44 IU/L
AST (24 h): 77.2 IU/L
BUN (24 h): 17.8 mg/dL
CRE (24 h): 0.5 mg/dL
Ca (24 h): 11.2 mg/dL
Cl (24 h): 105.6 meq/L
DBIL (24 h): 0.006 mg/dL
GLC (24 h): 180.4 mg/dL
IP (24 h): 9.8 mg/dL
K (24 h): 5 meq/L
LDH (24 h): 147 IU/L
Na (24 h): 141.6 meq/L
PL (24 h): 142.6 mg/dL
RALB (24 h): 3.8 g/dL
TBIL (24 h): 0.3 mg/dL
TC (24 h): 74 mg/dL
TG (24 h): 50.2 mg/dL
TP (24 h): 5.6 g/dL
gamma-GTP (24 h): 1 IU/L
